Measured values as given in patent US20140213779A1, “RIBOSWITCHES” (THE UNIVERSITY OF MANCHESTER, priority 2011, published 2014).
Where two headings read alike, the source gives them in different places.

What was measured:
[1] = test system: add A-riboswitch; assay: Dual promoter construct, eGFP expression by fluorescence; format: cell-based, Escherichia coli
Text: (§1) Here we show how two mutually orthogonal riboswitches can be independently controlled by varying concentrations of two distinct synthetic inducers, allowing dynamic expression landscapes to be accessed and optimal co-expression stoichiometries to be established. In the first instance a dual promoter system was constructed, in the pBKS vector with the orthogonal M6 riboswitch selected previously (Dixon et al Proc Natl Acad Sci USA 2010, 107, 2830] or Dixon et al Angew. Chem. 2012, 51, 3620-3624. controlling translation of the red fluorescent protein DsRed [Bevis, Nat. Biotech. 20:83 (2002)] in response to the ligand ammeline (Am). The bacteriophage lambda tR1 transcription terminator [Graham. NAR, Vol. 32:3093 (2004] was inserted downstream of DsRed gene, followed by a second lac promoter and the 2-aminopurine (2AP)-responsive parental add A-riboswitch [Dixon et al Proc Natl Acad Sci USA 2010, 107, 2830 & Mandal, Nat Struct Mol Biol 11: 29 (2004)] controlling translation of the green fluorescent protein eGFP (FIG. 34A). Escherichia coli was transformed with this dual promoter construct and expression of DsRed and eGFP genes, was then determined by fluorescence as function of inducer concentrations.
(§2) To explore the capacity of the dual promoter system for controlling the differential expression of DsRed and eGFP, multi-dosage matrix expression analysis was performed where induction factors (IF), the ratio of the maximum ligand-induced protein expression over the basal protein expression level, are determined for a full range of inducer concentrations (FIGS. 34A & B).
(§3) A number of reasons could possibly account for this. Firstly, ribosomal read-through could result in a more efficient initiation of translation at the eGFP RBS. […] Titration of the M6 selective inducer Am (0→250 μM) against the dual promoter in either the absence or presence 2AP (0 or 250 μM) gives dose-dependent protein expression curves for DsRed that are very similar, with maximum normalized red fluorescence (fu/OD620) of 1.1×10^5 and 1.0×10^5 respectively (FIG. 36A). […]

[2] = test system: M6 riboswitch; assay: Dual promoter construct, DsRed expression by fluorescence; format: cell-based, Escherichia coli; settings: for maximum normalized red fluorescence: Am 0→250 μM
Text: as §1, §2
(§4) A number of reasons could possibly account for this. Firstly, ribosomal read-through could result in a more efficient initiation of translation at the eGFP RBS. Secondly, riboswitches that control gene expression through changing the accessibility of the RBS (like addA), may also rely on Rho-dependent termination of transcription [Roth, Annu. Rev. Biochem. 78:305 (2009) & Peters Proc. Natl. Acad. Sci. USA 106:15406 (2009)]. In the case of the operon, when both riboswitches are activated by Am and 2AP, ribosomes will be recruited at both RBSs and will occupy the full length of the transcript, blocking Rho binding [Epshtein, Nature 463:245 (2010)]. Consequently the levels of full-length mRNA transcripts in the cell will be higher, than if either or both ligands are absent. Finally protection of the full-length transcript from nuclease degradation by actively translating ribosomes [Deana, Genes Dev. […] Titration of the M6 selective inducer Am (0→250 μM) against the dual promoter in either the absence or presence 2AP (0 or 250 μM) gives dose-dependent protein expression curves for DsRed that are very similar, with maximum normalized red fluorescence (fu/OD620) of 1.1×10^5 and 1.0×10^5 respectively (FIG. 36A). […]

[3] = test system: intergenic add-A riboswitch; assay: Operon construct, eGFP expression by fluorescence; format: cell-based, Escherichia coli
Text: In a second series of experiments, a synthetic operon was designed with one promoter driving transcription of a single bicistronic mRNA comprising the M6 riboswitch regulating DsRed, and an intergenic add-A riboswitch controlling a downstream eGFP gene (FIG. 35A). […] Moreover, the maximum DsRed induction factor was 21.2, which is also more than 2-fold higher than the dual promoter system (FIG. 35B). The organisation of M6-DsRed in an operon, permits differential control, but also gives rise to significant amplification of the dynamic range of gene expression (IF), compared with the dual promoter system. […] In this case, eGFP output was clearly dependent on both ligands. A synergistic effect of the two ligands is observed in the induction factor matrix analysis, across a full range of Am and 2AP concentrations (FIG. 35C), with the expression landscape reaching a maximum induction factor of 24.1 in the presence of the highest concentrations of both inducers. […] Similarly no cross-talk is observed with the dual promoter system described above.
as §4, with “(2010)].” for “(2010)]. Consequently the levels of full-length mRNA transcripts in the cell will be higher, than if either or both ligands are absent. Finally protection of the full-length transcript from nuclease degradation by actively translating ribosomes [Deana, Genes Dev.”

[4] = test system: M6; settings: earlier in vitro studies; cited from earlier work
[5] = test system: M6″ riboswitch
Method: (§6) Expression is induced using IPTG (0.5 mM) and increasing concentrations of A43 (respectively 0, 5, 10, 25, 50, 100, 250 uM) shown in the third to eighth columns.

[6] = molecular target: M6″ riboswitch aptamer; assay: Isothermal titration calorimetry with M6″ aptamer; format: binding
Text: (§5) Re-engineering the adenine responsive add A-riboswitch (addA) from Vibrio vulnificus (FIGS. 27A & B) [Dixon et al Proc Natl Acad Sci USA 2010, 107, 2830].

[7] = test system: addA(wt) riboswitch aptamer; assay: Isothermal titration calorimetry with AddA(wt) aptamer; format: binding, Vibrio vulnificus; settings: ITC, FIG. 59
Text: Improved 2nd generation ligands have been discovered both in terms of in vivo and in vitro binding affinity.

[8] = test system: M6″ riboswitch; assay: M6″-eGFP construct, GFP expression; format: cell-based, E. coli
Text: as §5
In contrast, the genetic construct of the invention comprises a lac promoter/operator upstream of a 2nd generation riboswitch M6″-eGFP the lac promoter/operator and riboswitch respectively providing direct control of the expression of GFP via transcriptional and translational control.
Both the comparator construct and the genetic construct of the invention were provided on high copy plasmids in Top 10F′.

[9] = test system: M6″ riboswitch; assay: T7 RNA polymerase expression under M6″ riboswitch control (spacer constructs); settings: for regulation upon addition of IPTG: IPTG 0.5 mM
Method: as §6

[10] = test system: AddA riboswitch; assay: addA-eGFP construct, GFP expression; format: cell-based, E. coli
Text: In the control constructs GFP expression is controlled directly by a lac promoter/operator alone. In contrast, in the gene constructs of the invention GFP expression is controlled by both a lac promoter/operator, and a riboswitch. In this arrangement the lac promoter provides transcriptional control of expression, and the riboswitch provides translational control. […] In this example, the first generation riboswitch comprises AddA (the ligand for which is adenine), and the second generation riboswitch comprises M6″ (the ligand for which is A43).
GFP induction factors (left axis indicated by the green bars) and absolute normalized GFP fluorescence signal (right axis) in the absence of inducer (open shape) and in the presence of inducer (closed shape).

[11] = test system: add A; settings: earlier in vitro studies; cited from earlier work
[12] = test system: M6 riboswitch; assay: Operon construct, DsRed expression by fluorescence; format: cell-based, Escherichia coli
Text: In a second series of experiments, a synthetic operon was designed with one promoter driving transcription of a single bicistronic mRNA comprising the M6 riboswitch regulating DsRed, and an intergenic add-A riboswitch controlling a downstream eGFP gene (FIG. 35A). […] Moreover, the maximum DsRed induction factor was 21.2, which is also more than 2-fold higher than the dual promoter system (FIG. 35B). The organisation of M6-DsRed in an operon, permits differential control, but also gives rise to significant amplification of the dynamic range of gene expression (IF), compared with the dual promoter system. […] In this case, eGFP output was clearly dependent on both ligands. […]
as §3

[13] = test system: lac promoter/operator; assay: Control lac P/O construct, GFP expression; format: cell-based, E. coli
Text: FIGS. 52 and 53 illustrate the increased dynamic regulation of expression of a gene of interest (here exemplified by green fluorescent protein) that can be achieved using gene constructs in accordance with the present invention, as compared to comparator (control) constructs. In the control constructs GFP expression is controlled directly by a lac promoter/operator alone. In contrast, in the gene constructs of the invention GFP expression is controlled by both a lac promoter/operator, and a riboswitch. In this arrangement the lac promoter provides transcriptional control of expression, and the riboswitch provides translational control. FIGS. 52 and 53 respectively show data generated by gene constructs of the invention comprising first and second generation riboswitches (referred to respectively as “1st Generation” and “2nd Generation” constructs) when present on high copy plasmids in E. coli Top10F′. In this example, the first generation riboswitch comprises AddA (the ligand for which is adenine), and the second generation riboswitch comprises M6″ (the ligand for which is A43). […]
The induction factor represents the degree to which gene expression is controlled, and is determined from the ratio of the maximum induced protein expression over the basal protein expression level. […]

[14] = test system: M6C″ riboswitch aptamer; assay: Isothermal titration calorimetry with M6C″ aptamer; format: binding; settings: ITC, M6C″ aptamer domain
Text: as §5

[15] = test system: M6C″ riboswitch; assay: M6C″-eGFP riboswitch-reporter construct, gene expression; format: cell-based, E. coli
Text: as §5

Question: With `Nc1ncc2[nH]cnc2n1` [2AP, 2-aminopurine] as the molecule, how does the “induction factor, eGFP” value ([1]; increasing 2AP) read?
Answer: 11.3

Question: What about the “maximum eGFP levels” value ([1]; unaffected by Am) of the same molecule?
Answer: ca. 55×10^6 fu/OD620

Question: What about the “effect upon DsRed induction” value ([2]; simultaneous increase in 2AP) of the same molecule?
Answer: essentially no effect

Question: What about the “output, eGFP” value ([3]; 2AP in the presence of Am (250 μM)) of the same molecule?
Answer: 25.9×10^6 fu/OD620

Question: What about the “maximum induction factor, eGFP” value ([3]; highest concentrations of both inducers (Am and 2AP)) of the same molecule?
Answer: 24.1

Question: What about the “maximum output, eGFP” value ([3]; titration of 2AP alone) of the same molecule?
Answer: 14.8×10^6 fu/OD620

Question: What about the binding interaction [4] of the same molecule?
Answer: no binding interaction

Question: What does the source list for `Nc1nc(N)c2cncnc2n1` [A43, pyrimido[4,5-d]pyrimidine-2,4-diamine]?
Answer: dynamic range of control (max/un-induced) ([5]; 105 nt spacer, IPTG (0.5 mM) plus A43 (250 uM)): 134 fold; induction factor above IPTG expression ([5]; sp120): up to 12 fold; Kd ([6]; isothermal titration calorimetry, FIG. 59, read-out: Kd): 0.189 µM; affinity [7]: no affinity; maximum eGFP expression compared with WT ([8]; eGFP expression assay, FIG. 58): exceeds that of the WT (adddA) with adenine; induction of gene expression ([8]; in E. coli): 12 fold; induction of gene expression ([8]; in combination with lac promoter/operator, FIG. 53): > 400 fold; induction factor ([8]; maximum induced over basal, IPTG plus A43): ~450; induction of T7 RNA polymerase (blot) ([9]; A43 50, 100, 250, 1000 μM, lac I forward or reverse, FIG. 48): dose-dependent; regulation of T7RNAP (western blot) ([9]; pTTv9, A43 2→250 uM, absence and presence of A1 (250 uM)): dose dependent regulation

Question: For `Nc1nc(N)c2nccnc2n1` [A44, 2,4-Diaminopteridine], which Kd ([6]; ITC, FIG. 60, read-out: in vitro binding affinity) is on record?
Answer: ~2 µM

Question: For `Nc1nc(N)[nH]c(=O)n1` [Am, ammeline], which “effect upon induction of eGFP expression” value ([1]; changes in Am concentration) is on record?
Answer: no effect

Question: And the “maximum normalized red fluorescence” value ([2]; absence of 2AP)?
Answer: 1.1×10^5 fu/OD620

Question: What about the “maximum normalized red fluorescence” value ([2]; presence of 2AP 250 μM) of the same molecule?
Answer: 1.0×10^5 fu/OD620

Question: And the “maximum induction factor, DsRed” value ([2]; increasing Am, co-administration of 2-AP)?
Answer: 9.3

Question: What about the “response of riboswitch to ligand” value [10] of the same molecule?
Answer: does not respond

Question: And the Kd ([6]; ITC, M6″ aptamer domain, read-out: Kd)?
Answer: 1 to 1.2 µM

Question: What about the binding interaction [11] of the same molecule?
Answer: no binding interaction

Question: And the “maximum DsRed induction factor” value [12]?
Answer: 21.2

Question: And the “maximum output, DsRed expression” value ([12]; Am 0→250 μM, presence or absence of 2AP (0 or 250 μM))?
Answer: 2.9×10^6 fu/OD620

Question: With `CC(C)S[C@@H]1O[C@H](CO)[C@H](O)[C@H](O)[C@H]1O` [IPTG] as the molecule, how does the “control +/−IPTG” value ([8]; riboswitch containing construct, column 2, no riboswitch inducer) read?
Answer: 40 fold

Question: And the “regulation upon addition of IPTG” value ([9]; sp105)?
Answer: 44 fold

Question: And the “regulation upon addition of IPTG” value ([9]; sp120)?
Answer: ~1 fold

Question: And the “induction factor (control +/−IPTG)” value [13]?
Answer: 4

Question: For `Nc1ncnc2nc[nH]c12` [adenine], which affinity [14] is on record?
Answer: no affinity

Question: What about the affinity ([6]; ITC, M6″ aptamer domain) of the same molecule?
Answer: no affinity

Question: What about the “response of riboswitch to ligand” value [15] of the same molecule?
Answer: neither responds

Question: What about the “response of riboswitch to ligand” value ([8]; M6″) of the same molecule?
Answer: neither responds

Question: With `Nc1ncnc(=O)[nH]1` [compound 3, azacytosine] as the molecule, how does the Kd [14] read?
Answer: 1 to 1.2 µM

Question: And the “response of riboswitch to ligand” value [10]?
Answer: does not respond
